The source made the active and inactive calls. No cut-off for these calls is given here.
Assays:
[1] = test system: Rhynchophorus ferrugineus; assay: Pesticidal activity against Rhynchophorus ferrugineus (red palm weevil) cocoon assessed as mortality at 20 ppm administered by dipping for 3 min measured at 90 hr post-treatment relative to control; format: functional
[2] = test system: Rhynchophorus ferrugineus; assay: Pesticidal activity Rhynchophorus ferrugineus (red palm weevil) larvae assessed as time required after hatching for 100% mortality at 3.5 ml/l administered topically measured up to 14 days relative to control; format: functional
[3] = test system: Rhynchophorus ferrugineus; assay: Pesticidal activity against adult Rhynchophorus ferrugineus (red palm weevil) assessed as time required for reversible knockdown at 1.5 ml/l administered topically; format: functional
[4] = test system: Rhynchophorus ferrugineus; assay: Pesticidal activity against Rhynchophorus ferrugineus (red palm weevil) larvae assessed as mortality at 4 ppm, po at 48 hr post-treatment relative to control; format: functional
[5] = test system: Rhynchophorus ferrugineus; assay: Pesticidal activity against Rhynchophorus ferrugineus (red palm weevil) cocoons assessed as time required for total mortality at 2.5 ml/l administered by dipping for 5 secs; format: functional
[6] = test system: Rhynchophorus ferrugineus; assay: Pesticidal activity against adult Rhynchophorus ferrugineus (red palm weevil) assessed as mortality at 100 ppm administered topically at 18 hr post-treatment; format: functional
[7] = test system: Rhynchophorus ferrugineus; assay: Pesticidal activity against Rhynchophorus ferrugineus (red palm weevil) larvae infested date palm trees assessed as mortality at 2.5 ml/l applied through soil-drench irrigation 1 week after infestation measured on day 30 post-treatment relative to control; format: functional
[8] = test system: Rhynchophorus ferrugineus; assay: Pesticidal activity against Rhynchophorus ferrugineus (red palm weevil) cocoon assessed as mortality at 0.5 ppm administered by dipping for 3 min measured at 48 hr post-treatment relative to control; format: functional
[9] = test system: Rhynchophorus ferrugineus; assay: Pesticidal activity against Rhynchophorus ferrugineus (red palm weevil) cocoon assessed as mortality at 0.5 ppm administered by dipping for 3 min measured at 24 hr post-treatment relative to control; format: functional
[10] = test system: Rhynchophorus ferrugineus; assay: Pesticidal activity against Rhynchophorus ferrugineus (red palm weevil) larvae assessed as mortality at 6 ppm, po at 48 hr post-treatment relative to control; format: functional
[11] = test system: Rhynchophorus ferrugineus; assay: Contact toxicity against Rhynchophorus ferrugineus (red palm weevil) adults assessed as time required for 50% reversible knockdown at 3.5 ml/l for 2 min; format: functional
[12] = test system: Rhynchophorus ferrugineus; assay: Pesticidal activity against adult Rhynchophorus ferrugineus (red palm weevil) assessed as mortality at 1.5 ppm, po at 90 hr post-treatment relative to control; format: functional
[13] = test system: Rhynchophorus ferrugineus; assay: Pesticidal activity against adult Rhynchophorus ferrugineus (red palm weevil) assessed as time required for 100% mortality at 3.5 ml/l administered topically; format: functional
[14] = test system: Rhynchophorus ferrugineus; assay: Pesticidal activity Rhynchophorus ferrugineus (red palm weevil) larvae assessed as time required after hatching for 100% mortality at 2.5 ml/l administered topically measured up to 14 days relative to control; format: functional
[15] = test system: Rhynchophorus ferrugineus; assay: Pesticidal activity against Rhynchophorus ferrugineus (red palm weevil) larvae assessed as mortality at 1.5 ppm, po at 24 hr post-treatment relative to control; format: functional
[16] = test system: Rhynchophorus ferrugineus; assay: Contact toxicity against Rhynchophorus ferrugineus (red palm weevil) adults assessed as time required for 100% reversible knockdown at 1.5 ml/l for 2 min; format: functional
[17] = test system: Rhynchophorus ferrugineus; assay: Pesticidal activity against adult Rhynchophorus ferrugineus (red palm weevil) assessed as mortality at 2 ppm, po at 114 hr post-treatment relative to control; format: functional
[18] = test system: Rhynchophorus ferrugineus; assay: Pesticidal activity against Rhynchophorus ferrugineus (red palm weevil) cocoon assessed as mortality at 20 ppm administered by dipping for 3 min measured at 114 hr post-treatment relative to control; format: functional
[19] = test system: Rhynchophorus ferrugineus; assay: Pesticidal activity against Rhynchophorus ferrugineus (red palm weevil) cocoon assessed as mortality at 20 ppm administered by dipping for 3 min measured at 18 hr post-treatment relative to control; format: functional
[20] = test system: Rhynchophorus ferrugineus; assay: Pesticidal activity against Rhynchophorus ferrugineus (red palm weevil) larvae assessed as mortality at 100 ppm administered topically at 48 hr post-treatment; format: functional
[21] = test system: Rhynchophorus ferrugineus; assay: Pesticidal activity against Rhynchophorus ferrugineus (red palm weevil) larvae assessed as mortality at 4 ppm, po at 24 hr post-treatment relative to control; format: functional
[22] = test system: Rhynchophorus ferrugineus; assay: Pesticidal activity against adult Rhynchophorus ferrugineus (red palm weevil) assessed as mortality at 1000 ppm administered topically at 36 hr post-treatment; format: functional
[23] = test system: Rhynchophorus ferrugineus; assay: Pesticidal activity against adult Rhynchophorus ferrugineus (red palm weevil) infested date palm tree assessed as disorientation of collected live stage larvae at 20 ml/4l of water applied through soil-drench irrigation measured after 3 weeks relative to control; format: functional, organism-based
[24] = test system: Rhynchophorus ferrugineus; assay: Pesticidal activity against Rhynchophorus ferrugineus (red palm weevil) cocoon assessed as mortality at 4 ppm administered by dipping for 3 min measured at 18 hr post-treatment relative to control; format: functional
[25] = test system: Rhynchophorus ferrugineus; assay: Pesticidal activity against Rhynchophorus ferrugineus (red palm weevil) cocoon assessed as mortality at 1.5 ppm administered by dipping for 3 min measured at 24 hr post-treatment relative to control; format: functional
[26] = test system: Rhynchophorus ferrugineus; assay: Pesticidal activity against adult Rhynchophorus ferrugineus (red palm weevil) assessed as mortality at 1 ppm, po at 18 hr post-treatment relative to control; format: functional
[27] = test system: Rhynchophorus ferrugineus; assay: Pesticidal activity against Rhynchophorus ferrugineus (red palm weevil) cocoon assessed as mortality at 1.5 ppm administered by dipping for 3 min measured at 72 hr post-treatment relative to control; format: functional
[28] = test system: Rhynchophorus ferrugineus; assay: Contact toxicity against Rhynchophorus ferrugineus (red palm weevil) adults assessed as time required for 100% mortality at 3.5 ml/l for 2 min; format: functional
[29] = test system: Rhynchophorus ferrugineus; assay: Pesticidal activity against Rhynchophorus ferrugineus (red palm weevil) larvae assessed as mortality at 300 ppm administered topically at 72 hr post-treatment; format: functional
[30] = test system: Rhynchophorus ferrugineus; assay: Pesticidal activity against adult Rhynchophorus ferrugineus (red palm weevil) assessed as mortality at 2 ppm, po at 90 hr post-treatment relative to control; format: functional
[31] = test system: Rhynchophorus ferrugineus; assay: Pesticidal activity against Rhynchophorus ferrugineus (red palm weevil) larvae infested date palm tree assessed as non-feeding status of collected live stage larvae at 20 ml/4l of water applied through soil-drench irrigation measured after 3 weeks relative to control; format: functional, organism-based
[32] = test system: Rhynchophorus ferrugineus; assay: Contact toxicity against Rhynchophorus ferrugineus (red palm weevil) adults assessed as time required for 50% mortality at 1.5 ml/l for 2 min; format: functional
[33] = test system: Rhynchophorus ferrugineus; assay: Pesticidal activity against Rhynchophorus ferrugineus (red palm weevil) larvae assessed as mortality at 1.5 ppm, po at 114 hr post-treatment relative to control; format: functional
[34] = test system: Rhynchophorus ferrugineus; assay: Pesticidal activity against Rhynchophorus ferrugineus (red palm weevil) larvae assessed as mortality at 0.5 ppm, po at 48 hr post-treatment relative to control; format: functional
[35] = test system: Rhynchophorus ferrugineus; assay: Pesticidal activity against adult Rhynchophorus ferrugineus (red palm weevil) assessed as mortality at 500 ppm administered topically at 72 hr post-treatment; format: functional
[36] = test system: Rhynchophorus ferrugineus; assay: Pesticidal activity against Rhynchophorus ferrugineus (red palm weevil) larvae assessed as mortality at 500 ppm administered topically at 36 hr post-treatment; format: functional
[37] = test system: Rhynchophorus ferrugineus; assay: Pesticidal activity against adult Rhynchophorus ferrugineus (red palm weevil) assessed as mortality at 1.5 ppm, po at 114 hr post-treatment relative to control; format: functional
[38] = test system: Rhynchophorus ferrugineus; assay: Pesticidal activity against adult Rhynchophorus ferrugineus (red palm weevil) assessed as time required for 100% mortality at 2.5 ml/l administered topically; format: functional
[39] = test system: Rhynchophorus ferrugineus; assay: Pesticidal activity against adult Rhynchophorus ferrugineus (red palm weevil) assessed as mortality at 1 ppm, po at 114 hr post-treatment relative to control; format: functional
[40] = test system: Rhynchophorus ferrugineus; assay: Pesticidal activity against Rhynchophorus ferrugineus (red palm weevil) cocoons assessed as time required for total mortality at 3.5 ml/l administered by dipping for 30 secs; format: functional
[41] = test system: Rhynchophorus ferrugineus; assay: Contact toxicity against Rhynchophorus ferrugineus (red palm weevil) adults assessed as time required for 50% reversible knockdown at 1.5 ml/l for 2 min; format: functional

Structure (SMILES): O=[N+]([O-])/N=C1\NCCN1Cc1ccc(Cl)nc1 [IMIDACLOPRID]
- Activity [1]: 72.2%
- Time [2]: 4 days
- Time [3]: 4 days
- Activity [4]: 100%
- Time [5]: 9.5 days
- Activity [6]: 0%
- Activity [7]: 94.4%
- Activity [8]: 0%
- Activity [9]: 0%
- Activity [10]: 100%
- Time [11]: 1.1 days
- Activity [12]: 100%
- Time [13]: 6.1 days
- Time [14]: 6 days
- Activity [15]: 100%
- Time [16]: 9 days
- Activity [17]: 100%
- Activity [18]: 100%
- Activity [19]: 0%
- Activity [20]: 0%
- Activity [21]: 100%
- Activity [22]: 100%
- Activity [23]: Active
- Activity [24]: 0%
- Activity [25]: 0%
- Activity [26]: 38.9%
- Activity [27]: 0%
- Time [28]: 8.1 days
- Activity [29]: 38.9%
- Activity [30]: 100%
- Activity [31]: Active
- Time [32]: 10.1 days
- Activity [33]: 100%
- Activity [34]: 38.9%
- Activity [35]: 72.2%
- Activity [36]: 38.9%
- Activity [37]: 100%
- Time [38]: 8.8 days
- Activity [39]: 72.2%
- Time [40]: 3.2 days
- Time [41]: 3.2 days
